Data as given in patent publication US20220281848A1, “PYRAZOLE-SUBSTITUTED PYRROLIDINONES AS HERBICIDES” (FMC Corporation, priority 2019, published 2022).

Tested on: plants
Test: Test D post-emergence, other plants of Tables D2 and D4
Format: in vivo
Conditions: for damage to plant (100=total damage to plant; 0=no damage to plant), ABUTH / damage to plant (100=total damage to plant; 0=no damage to plant), AMARE / damage to plant (100=total damage to plant; 0=no damage to plant), BIDPI / damage to plant (100=total damage to plant; 0=no damage to plant), BRAPL / damage to plant (100=total damage to plant; 0=no damage to plant), CYPES / damage to plant (100=total damage to plant; 0=no damage to plant), DIGSA / damage to plant (100=total damage to plant; 0=no damage to plant), ECHCG / damage to plant (100=total damage to plant; 0=no damage to plant), ELEIN / damage to plant (100=total damage to plant; 0=no damage to plant), EPHHL / damage to plant (100=total damage to plant; 0=no damage to plant), GLXMA / damage to plant (100=total damage to plant; 0=no damage to plant), IPOHE / damage to plant (100=total damage to plant; 0=no damage to plant), ORYSA / damage to plant (100=total damage to plant; 0=no damage to plant), PANMI / damage to plant (100=total damage to plant; 0=no damage to plant), SETFA / damage to plant (100=total damage to plant; 0=no damage to plant), SORVU: post-emergence
Description: A formulation containing 50 g/L of the test chemical was prepared by dissolving the active ingredient in a mixture of organic solvents and emulsifier, details of which are provided in the table. This formulation was then mixed with a small, variable amount of acetone to aid dissolution, before addition of a 0.2% v/v aqueous solution of an adjuvant, as the aqueous diluent, to form an aqueous spray solution which contains a predetermined concentration of the active ingredient.
This aqueous spray solution was then sprayed onto plants including maize and wheat that had been seed treated with a herbicide safener, after one day's cultivation (for pre-emergence) or after about 12 days' cultivation (for post-emergence). The plants were grown from seeds sown in standard soil, placed in a glasshouse under controlled conditions (at 24/18° C. or 20/16° C., day/night; 16 h light; 65% humidity). After spray application the plants were then grown in a glasshouse under the same conditions and watered twice daily. After 15 d for post-emergence and 20 DAA for pre-emergence the test was evaluated (100=total damage to plant; 0=no damage to plant).

[1] = "Cereals" Postemergent, Rates 130, evaluated after 15 d
[2] = "Cereals" Postemergent, Rates 250, evaluated after 15 d
[3] = "Cereals" Postemergent, Rates 500, evaluated after 15 d

Question: How did the “SINAR damage rating (100=total damage to plant; 0=no damage to plant)” value (SINAR, "Cereals" Postemergent, Rates 500, evaluated after 15 d) turn out when `CN1CC(c2cc(C(F)(F)F)n(C)n2)C(C(=O)Nc2ccc(F)nc2F)C1=O` (racemic) [Compound 22] was run?
Answer: 20

Question: And the “STEME damage rating (100=total damage to plant; 0=no damage to plant)” value [1]?
Answer: 0

Question: And the “STEME damage rating (100=total damage to plant; 0=no damage to plant)” value [2]?
Answer: 0

Question: And the “STEME damage rating (100=total damage to plant; 0=no damage to plant)” value [3]?
Answer: 30

Question: What about the “VERPE damage rating (100=total damage to plant; 0=no damage to plant)” value [1] of the same compound?
Answer: 0

Question: And the “VERPE damage rating (100=total damage to plant; 0=no damage to plant)” value [2]?
Answer: 50

Question: And the “VERPE damage rating (100=total damage to plant; 0=no damage to plant)” value [3]?
Answer: 60

Question: What about the “damage to plant (100=total damage to plant; 0=no damage to plant), ABUTH” value (rate 130, evaluated after 15 d) of the same compound?
Answer: 0

Question: What about the “damage to plant (100=total damage to plant; 0=no damage to plant), ABUTH” value (rate 250, evaluated after 15 d) of the same compound?
Answer: 10

Question: And the “damage to plant (100=total damage to plant; 0=no damage to plant), ABUTH” value (rate 500, evaluated after 15 d)?
Answer: 30

Question: What about the “damage to plant (100=total damage to plant; 0=no damage to plant), AMARE” value (rate 130, evaluated after 15 d) of the same compound?
Answer: 0

Question: What about the “damage to plant (100=total damage to plant; 0=no damage to plant), AMARE” value (rate 250, evaluated after 15 d) of the same compound?
Answer: 0

Question: What about the “damage to plant (100=total damage to plant; 0=no damage to plant), AMARE” value (rate 500, evaluated after 15 d) of the same compound?
Answer: 0

Question: What about the “damage to plant (100=total damage to plant; 0=no damage to plant), BIDPI” value (rate 130, evaluated after 15 d) of the same compound?
Answer: 0

Question: What about the “damage to plant (100=total damage to plant; 0=no damage to plant), BIDPI” value (rate 250, evaluated after 15 d) of the same compound?
Answer: 0

Question: What about the “damage to plant (100=total damage to plant; 0=no damage to plant), BIDPI” value (rate 500, evaluated after 15 d) of the same compound?
Answer: 20

Question: And the “damage to plant (100=total damage to plant; 0=no damage to plant), BRAPL” value (rate 130, evaluated after 15 d)?
Answer: 0

Question: And the “damage to plant (100=total damage to plant; 0=no damage to plant), BRAPL” value (rate 250, evaluated after 15 d)?
Answer: 50

Question: And the “damage to plant (100=total damage to plant; 0=no damage to plant), BRAPL” value (rate 500, evaluated after 15 d)?
Answer: 70

Question: What about the “damage to plant (100=total damage to plant; 0=no damage to plant), CYPES” value (rate 130, evaluated after 15 d) of the same compound?
Answer: 0

Question: And the “damage to plant (100=total damage to plant; 0=no damage to plant), CYPES” value (rate 250, evaluated after 15 d)?
Answer: 0

Question: What about the “damage to plant (100=total damage to plant; 0=no damage to plant), CYPES” value (rate 500, evaluated after 15 d) of the same compound?
Answer: 10

Question: And the “damage to plant (100=total damage to plant; 0=no damage to plant), DIGSA” value (rate 130, evaluated after 15 d)?
Answer: 40

Question: What about the “damage to plant (100=total damage to plant; 0=no damage to plant), DIGSA” value (rate 250, evaluated after 15 d) of the same compound?
Answer: 60

Question: What about the “damage to plant (100=total damage to plant; 0=no damage to plant), DIGSA” value (rate 500, evaluated after 15 d) of the same compound?
Answer: 60

Question: And the “damage to plant (100=total damage to plant; 0=no damage to plant), ECHCG” value (rate 130, evaluated after 15 d)?
Answer: 0

Question: What about the “damage to plant (100=total damage to plant; 0=no damage to plant), ECHCG” value (rate 250, evaluated after 15 d) of the same compound?
Answer: 40

Question: What about the “damage to plant (100=total damage to plant; 0=no damage to plant), ECHCG” value (rate 500, evaluated after 15 d) of the same compound?
Answer: 50

Question: What about the “damage to plant (100=total damage to plant; 0=no damage to plant), ELEIN” value (rate 130, evaluated after 15 d) of the same compound?
Answer: 10

Question: And the “damage to plant (100=total damage to plant; 0=no damage to plant), ELEIN” value (rate 250, evaluated after 15 d)?
Answer: 10

Question: And the “damage to plant (100=total damage to plant; 0=no damage to plant), ELEIN” value (rate 500, evaluated after 15 d)?
Answer: 40

Question: And the “damage to plant (100=total damage to plant; 0=no damage to plant), EPHHL” value (rate 130, evaluated after 15 d)?
Answer: 0

Question: What about the “damage to plant (100=total damage to plant; 0=no damage to plant), EPHHL” value (rate 250, evaluated after 15 d) of the same compound?
Answer: 20

Question: And the “damage to plant (100=total damage to plant; 0=no damage to plant), EPHHL” value (rate 500, evaluated after 15 d)?
Answer: 30

Question: What about the “damage to plant (100=total damage to plant; 0=no damage to plant), GLXMA” value (rate 130, evaluated after 15 d) of the same compound?
Answer: 0

Question: What about the “damage to plant (100=total damage to plant; 0=no damage to plant), GLXMA” value (rate 250, evaluated after 15 d) of the same compound?
Answer: 10

Question: And the “damage to plant (100=total damage to plant; 0=no damage to plant), GLXMA” value (rate 500, evaluated after 15 d)?
Answer: 40

Question: And the “damage to plant (100=total damage to plant; 0=no damage to plant), IPOHE” value (rate 130, evaluated after 15 d)?
Answer: 10

Question: And the “damage to plant (100=total damage to plant; 0=no damage to plant), IPOHE” value (rate 250, evaluated after 15 d)?
Answer: 30

Question: What about the “damage to plant (100=total damage to plant; 0=no damage to plant), IPOHE” value (rate 500, evaluated after 15 d) of the same compound?
Answer: 50

Question: What about the “damage to plant (100=total damage to plant; 0=no damage to plant), ORYSA” value (rate 130, evaluated after 15 d) of the same compound?
Answer: 0

Question: What about the “damage to plant (100=total damage to plant; 0=no damage to plant), ORYSA” value (rate 250, evaluated after 15 d) of the same compound?
Answer: 0

Question: And the “damage to plant (100=total damage to plant; 0=no damage to plant), ORYSA” value (rate 500, evaluated after 15 d)?
Answer: 0

Question: What about the “damage to plant (100=total damage to plant; 0=no damage to plant), PANMI” value (rate 130, evaluated after 15 d) of the same compound?
Answer: 70

Question: And the “damage to plant (100=total damage to plant; 0=no damage to plant), PANMI” value (rate 250, evaluated after 15 d)?
Answer: 20

Question: And the “damage to plant (100=total damage to plant; 0=no damage to plant), PANMI” value (rate 500, evaluated after 15 d)?
Answer: 40

Question: What about the “damage to plant (100=total damage to plant; 0=no damage to plant), SETFA” value (rate 130, evaluated after 15 d) of the same compound?
Answer: 0

Question: And the “damage to plant (100=total damage to plant; 0=no damage to plant), SETFA” value (rate 250, evaluated after 15 d)?
Answer: 0

Question: What about the “damage to plant (100=total damage to plant; 0=no damage to plant), SETFA” value (rate 500, evaluated after 15 d) of the same compound?
Answer: 20

Question: What about the “damage to plant (100=total damage to plant; 0=no damage to plant), SORVU” value (rate 130, evaluated after 15 d) of the same compound?
Answer: 0

Question: What about the “damage to plant (100=total damage to plant; 0=no damage to plant), SORVU” value (rate 250, evaluated after 15 d) of the same compound?
Answer: 0

Question: What about the “damage to plant (100=total damage to plant; 0=no damage to plant), SORVU” value (rate 500, evaluated after 15 d) of the same compound?
Answer: 0
